For this experiment, the target named is T1, AtSUT4 (Arabidopsis thaliana, UniProt Q9FE59).
T1 sequence (Q9FE59 1-510): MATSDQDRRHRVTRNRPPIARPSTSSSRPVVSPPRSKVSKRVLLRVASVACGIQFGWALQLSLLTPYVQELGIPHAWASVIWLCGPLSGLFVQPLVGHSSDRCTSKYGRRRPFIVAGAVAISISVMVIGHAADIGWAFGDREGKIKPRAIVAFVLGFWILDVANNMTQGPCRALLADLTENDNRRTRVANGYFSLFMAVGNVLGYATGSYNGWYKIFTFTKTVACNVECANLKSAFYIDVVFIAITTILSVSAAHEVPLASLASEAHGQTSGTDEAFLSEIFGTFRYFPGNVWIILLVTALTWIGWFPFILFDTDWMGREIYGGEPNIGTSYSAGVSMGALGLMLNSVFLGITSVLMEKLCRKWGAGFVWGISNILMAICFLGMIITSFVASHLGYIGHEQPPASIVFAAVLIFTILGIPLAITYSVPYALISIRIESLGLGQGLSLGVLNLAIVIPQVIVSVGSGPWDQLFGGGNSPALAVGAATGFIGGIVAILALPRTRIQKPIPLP
The experiment can be described thus: inhibition of ^[…]-sucrose uptake in yeast expressing AtSUT4. Type of experiment: cell-based. The settings on record: 3 mM ^14C-sucrose; competing non-labeled sugar at 9 mM.

As for `OC[C@H]1O[C@H](O[C@H]2[C@H](O)[C@@H](O)C(O)O[C@@H]2CO)[C@H](O)[C@@H](O)[C@@H]1O` (some centres unmarked) [maltose], the “% inhibition at 9 mM” value is “uptake of sucrose by AtSUT4 was inhibited by rutinose, maltose and lactose”.
For `OC[C@H]1O[C@@H](O[C@H]2[C@H](O)[C@@H](O)C(O)O[C@@H]2CO)[C@H](O)[C@@H](O)[C@H]1O` (some centres unmarked) [lactose] the value was “uptake of sucrose by AtSUT4 was inhibited by rutinose, maltose and lactose”.

Source of the values: publication PMC2806534 (Planta, 2009).
